Measurements as given in US20240124479A1, “PYRIMIDINE CARBOXAMIDE COMPOUND AND USE THEREOF” (SHANGHAI MEIYUE BIOTECH DEVELOPMENT CO. LTD, priority 2020, published 2024).
Where two headings read alike, the source gives them in different places. Each block holds one molecule with its values, some of them ahead of it.

Tests used:
human plasma Vanin-1 = human plasma Vanin-1 (Homo sapiens (Human), UniProt O95497); assay: Human plasma Vanin-1 enzyme activity inhibition assay; assay type: biochemical; settings: 100-fold diluted human plasma, substrate 25 μM, reading at 30th minute; read-out: hPlasma IC50
Chain of human plasma Vanin-1 (O95497 22-513): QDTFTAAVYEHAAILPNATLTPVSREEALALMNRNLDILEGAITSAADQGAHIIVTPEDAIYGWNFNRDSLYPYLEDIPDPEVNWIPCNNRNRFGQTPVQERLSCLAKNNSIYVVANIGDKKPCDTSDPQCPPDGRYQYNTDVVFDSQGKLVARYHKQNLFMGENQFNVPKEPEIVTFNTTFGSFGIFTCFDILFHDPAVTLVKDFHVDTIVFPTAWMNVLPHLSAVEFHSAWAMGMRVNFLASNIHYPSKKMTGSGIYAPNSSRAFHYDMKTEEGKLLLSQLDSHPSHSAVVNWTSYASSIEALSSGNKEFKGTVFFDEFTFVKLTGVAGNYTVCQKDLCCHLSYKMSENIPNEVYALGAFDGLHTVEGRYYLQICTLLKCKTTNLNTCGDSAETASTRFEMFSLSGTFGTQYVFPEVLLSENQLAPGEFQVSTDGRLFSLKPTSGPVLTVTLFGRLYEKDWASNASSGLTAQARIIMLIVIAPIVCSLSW

CYP 1A2 = CYP 1A2 (Homo sapiens (Human), UniProt P05177); assay: CYP enzyme inhibitory activity IC50 assay (cocktail method), 1A2; assay type: in vitro ADME; settings: microsomes 0.1 mg/mL, probe Phenacetin
Chain of CYP 1A2 (P05177 whole entry): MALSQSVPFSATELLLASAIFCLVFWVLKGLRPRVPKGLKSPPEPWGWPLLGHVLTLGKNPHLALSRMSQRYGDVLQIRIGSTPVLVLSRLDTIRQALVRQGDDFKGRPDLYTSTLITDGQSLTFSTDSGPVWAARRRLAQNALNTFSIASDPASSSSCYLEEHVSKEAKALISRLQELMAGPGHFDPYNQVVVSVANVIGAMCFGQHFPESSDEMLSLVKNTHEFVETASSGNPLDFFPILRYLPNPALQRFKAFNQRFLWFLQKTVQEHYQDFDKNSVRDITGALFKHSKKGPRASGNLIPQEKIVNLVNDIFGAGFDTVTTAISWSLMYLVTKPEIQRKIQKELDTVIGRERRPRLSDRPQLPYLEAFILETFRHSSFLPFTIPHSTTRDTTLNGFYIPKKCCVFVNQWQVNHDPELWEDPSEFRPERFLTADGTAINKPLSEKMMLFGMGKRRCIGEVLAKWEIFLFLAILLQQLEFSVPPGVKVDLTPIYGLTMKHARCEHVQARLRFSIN
Text: (§1) […]. […] […].

CYP 2C9 = CYP 2C9 (Homo sapiens (Human), UniProt P11712); assay: CYP enzyme inhibitory activity IC50 assay (cocktail method), 2C9; assay type: in vitro ADME; settings: microsomes 0.1 mg/mL, probe Diclofenac
Chain of CYP 2C9 (P11712 whole entry): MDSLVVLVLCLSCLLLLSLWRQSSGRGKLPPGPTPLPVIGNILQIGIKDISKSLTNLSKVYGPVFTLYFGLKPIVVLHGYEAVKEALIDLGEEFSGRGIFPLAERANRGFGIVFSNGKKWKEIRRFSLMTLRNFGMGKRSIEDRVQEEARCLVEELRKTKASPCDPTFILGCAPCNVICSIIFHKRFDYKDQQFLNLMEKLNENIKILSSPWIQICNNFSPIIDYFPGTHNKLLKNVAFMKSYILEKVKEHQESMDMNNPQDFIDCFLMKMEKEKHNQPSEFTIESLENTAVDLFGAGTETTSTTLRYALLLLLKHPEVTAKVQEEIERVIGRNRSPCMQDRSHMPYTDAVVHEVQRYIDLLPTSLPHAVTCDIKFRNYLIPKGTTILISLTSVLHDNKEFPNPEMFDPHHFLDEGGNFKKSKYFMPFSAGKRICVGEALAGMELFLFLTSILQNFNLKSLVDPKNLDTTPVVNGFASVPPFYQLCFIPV
Text: as §1

CYP 2D6 = CYP 2D6 (Homo sapiens (Human), UniProt P10635); assay: CYP enzyme inhibitory activity IC50 assay (cocktail method), 2D6; assay type: in vitro ADME; settings: microsomes 0.1 mg/mL, probe Dextromethorphan
Chain of CYP 2D6 (P10635 whole entry): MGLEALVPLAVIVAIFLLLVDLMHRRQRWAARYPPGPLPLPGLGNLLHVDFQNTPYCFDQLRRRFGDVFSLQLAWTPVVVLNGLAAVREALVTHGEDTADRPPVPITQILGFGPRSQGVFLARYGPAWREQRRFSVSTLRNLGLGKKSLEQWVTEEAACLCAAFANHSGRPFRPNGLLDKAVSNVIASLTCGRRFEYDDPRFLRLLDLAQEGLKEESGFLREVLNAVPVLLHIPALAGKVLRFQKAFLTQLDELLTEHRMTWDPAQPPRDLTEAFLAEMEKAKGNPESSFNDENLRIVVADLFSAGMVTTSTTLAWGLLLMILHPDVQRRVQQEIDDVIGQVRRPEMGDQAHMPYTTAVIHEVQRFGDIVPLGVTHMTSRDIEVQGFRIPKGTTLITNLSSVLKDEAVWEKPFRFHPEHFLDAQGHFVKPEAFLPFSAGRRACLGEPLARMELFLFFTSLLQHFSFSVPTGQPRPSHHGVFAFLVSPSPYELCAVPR
Text: as §1

[1] = In vivo pharmacokinetic evaluation in mice; parameters: clearance: unit not given here; settings: for AUC(0-t): read-out: Area under the curve AUC0-7 h; for half-life: read-out: Half-life T1/2 (converted); for Cmax: read-out: Peak concentration Cmax
Text: The vehicle used in the experiment was: DMSO: Solutol: PBS=5%:25%:70% (v/v/v). Preparation method: The required compound was weighed accurately, added with a certain volume of DMSO in a certain proportion, vortex-mixed until completely dissolved, then added successively with Solutol and PBS according to the above proportion, and mixed well. The vehicles used in the intravenous (iv) administration group and oral (po) administration group were the same vehicles in the experiment. The intravenous dose was 2 mpk and the oral dose was 5 mpk. Experimental blood collection time points: IV group: 0.083, 0.25, 0.5, 1, 2, 4, 7, 24 h. PO group: 200 μL of whole blood was collected from jugular vein at each time point of 0.25, 0.5, 1, 2, 4, 7 and 24 h, anticoagulated with EDTA-K2, and immediately centrifuged at 4000 rpm for 5 minutes at 4° C. The supernatant was taken and the samples were frozen and stored in a refrigerator at −80° C. Processing of plasma samples: the sample was precipitated with ACN/MeOH (1:1, v/v) precipitant containing internal standard, then centrifuged at 14000 rpm for 5 minutes. The supernatant was taken into LC-MS/MS (AB Triple Quard 5500) for analysis to obtain plasma concentrations, and parameters were calculated by the non-compartmental model of Winnolin 8.1 version.

[2] = In vitro liver microsome stability assay, human; assay type: in vitro ADME; settings: liver microsomes, read-out: T1/2 Human
Method: (§2) PBS Buffer was 50 mM K2HPO4 buffer.

[3] = In vitro liver microsome stability, overall statement; assay type: in vitro ADME; settings: human, mouse, rat liver microsomes; result in words
Method: as §2

CYP3A4 = CYP3A4 (Homo sapiens, UniProt P08684); assay: in vitro; settings: microsomes
Chain of CYP3A4 (P08684 2-503 limits assumed): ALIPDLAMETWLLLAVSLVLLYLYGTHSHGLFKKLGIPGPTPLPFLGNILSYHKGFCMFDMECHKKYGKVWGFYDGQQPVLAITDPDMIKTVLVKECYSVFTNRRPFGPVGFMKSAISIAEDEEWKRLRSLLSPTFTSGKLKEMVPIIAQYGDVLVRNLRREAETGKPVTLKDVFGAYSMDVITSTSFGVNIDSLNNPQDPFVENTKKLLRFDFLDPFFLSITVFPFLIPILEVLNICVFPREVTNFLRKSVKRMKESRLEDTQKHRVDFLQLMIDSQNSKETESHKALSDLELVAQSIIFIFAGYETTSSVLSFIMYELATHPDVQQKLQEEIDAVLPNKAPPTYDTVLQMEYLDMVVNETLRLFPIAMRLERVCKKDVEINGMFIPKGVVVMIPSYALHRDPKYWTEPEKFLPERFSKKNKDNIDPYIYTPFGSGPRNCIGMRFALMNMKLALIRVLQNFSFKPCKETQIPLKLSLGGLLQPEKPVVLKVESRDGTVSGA

[4] = In vitro liver microsome stability assay, mouse; assay type: in vitro ADME; settings: liver microsomes, read-out: T1/2 Mouse
Method: as §2

[5] = In vitro liver microsome stability assay, rat; assay type: in vitro ADME; settings: liver microsomes, read-out: T1/2 Rat
Method: as §2

CYP 2C19 = CYP 2C19 (Homo sapiens (Human), UniProt P33261); assay: CYP enzyme inhibitory activity IC50 assay (cocktail method), 2C19; assay type: in vitro ADME; settings: microsomes 0.1 mg/mL, probe Mephenytoin
Chain of CYP 2C19 (P33261 whole entry): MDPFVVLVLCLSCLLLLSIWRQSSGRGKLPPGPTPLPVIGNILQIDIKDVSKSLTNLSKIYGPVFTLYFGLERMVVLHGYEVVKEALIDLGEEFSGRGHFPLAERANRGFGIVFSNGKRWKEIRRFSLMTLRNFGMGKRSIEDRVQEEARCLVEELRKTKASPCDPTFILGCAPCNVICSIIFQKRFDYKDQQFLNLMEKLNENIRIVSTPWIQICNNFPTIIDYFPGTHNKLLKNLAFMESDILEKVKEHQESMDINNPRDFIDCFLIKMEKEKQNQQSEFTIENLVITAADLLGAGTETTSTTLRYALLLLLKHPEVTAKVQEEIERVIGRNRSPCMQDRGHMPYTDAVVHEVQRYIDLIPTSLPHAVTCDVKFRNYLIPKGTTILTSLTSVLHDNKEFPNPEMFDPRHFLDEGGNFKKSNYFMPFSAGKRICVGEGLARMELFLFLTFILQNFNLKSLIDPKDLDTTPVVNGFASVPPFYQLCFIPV
Text: as §1

CYP enzymes = assay: CYP enzyme inhibition, overall statement on tested CYP enzymes; assay type: in vitro ADME; settings: 1A2, 2C9, 2C19, 2D6, 3A4; result in words
Text: as §1

[6] = mouse, plasma, 2 mg/kg, intravenous injection, 2 mpk
[7] = mouse, plasma, po, 5 mg/kg, intragastric administration, 5 mpk

IC50 (human plasma Vanin-1): 7.9 nM
SMILES: O=C(c1cnc(NCc2ccc(F)cc2F)nc1)N1CCC2(CCOCC2)C1 [Compound 12]

SMILES: CC(=O)N(C)[C@H]1CCN(C(=O)c2cnc(N[C@H](C)c3ccc(C(F)(F)F)cc3F)nc2)C1 [Compound 41-P2]
IC50 (CYP 1A2): > 50 µM
IC50 (CYP 2C9): 45.6 µM
IC50 (CYP 2D6): > 50 µM
Area under the curve AUC0-7 h ([1]; intragastric administration, 5 mpk): 10656.5 ng·h/mL
AUC(0-t) [1, 6]: 4960 ng·h/mL
clearance ([1]; mouse, plasma, 2 mg/kg, intravenous injection, 2 mpk, read-out: Clearance rate CL (converted)): 0.112
Vd ([1]; mouse, plasma, 2 mg/kg, intravenous injection, 2 mpk, read-out: Distributed solvent Vd): 1.26 L/kg
half-life [1, 6]: 168 min
Cmax [1, 6]: 2140 ng/mL
bioavailability ([1]; mouse, plasma, oral, intragastric administration 5 mpk vs intravenous 2 mpk, read-out: Bioavailability F %): 86%
AUC(0-t) [1, 7]: 10700 ng·h/mL
half-life [1, 7]: 336 min
Cmax [1, 7]: 1540 ng/mL
half-life at 1 μM [2]: > 280 min
liver microsome stability [3]: remarkable stability
IC50 at 10 min (CYP3A4): > 50 µM
half-life at 1 μM [4]: 98.8 min
half-life at 1 μM [5]: 198 min
IC50 (CYP 2C19): > 50 µM
inhibitory effect on the tested CYP enzymes (CYP enzymes): basically no inhibitory effect

IC50 (human plasma Vanin-1): 1.6 nM
SMILES: CC(Nc1ncc(C(=O)N2CCC3(CCOCC3)C2)cn1)c1ccccc1 (stereo not shown) [Compound 6]
